# Laboratory results as given in patent publication US20020071842A1, “Soluble CD1 compositions and uses thereof” (priority 2000, published 2002).
# Tests used:
# Assay in all cases: Plate-bound mCD1d fusion protein hybridoma stimulation assay (IL-2 ELISA)
# Type in all cases: cell-based, mouse
# 24.8.A hybridoma = details: for IL-2 secretion: 24.8 A NKT hybridoma, plate-bound mCD1d-IgGFc2a fusion protein preincubated with lipid antigen
# Description: (§1) The CD1d-restricted T cell clones 24.7, 24.8, 24.9 (NKT cell) and 14S.6, 14S.7, 14S.10, and 14S.15 (diverse TCRs) were all derived from spleen of wild type C57BL/6 mice, as described previously (Behar, S. M. et al., J. Immunol., 162:161-7 (1999)). To generate T cell hybridomas, the activated T cells were fused to the aminopterin-sensitive BW5147 αβTCR^− thymoma cell line using PEG1500, and hybrids were selected in HAT medium (Life Technologies, Gaithersburg, Md.). Resulting TT hybridomas were tested for recognition of RMA-S cells transfected with mCD1D1 compared to untransfected RMA-S cells, as described below. […] The hybridomas are distinguished from the original T cell clones by the addition of a letter to their names. The KT/7, KT/12, KT/22, and KT/23 and Vβ/9 NKT cell hybridomas were derived from NK1.1^+ T cells enriched from spleen of C57BL/6 mice by depletion of CD8+ T cells, naive T cells, and B cells by mAbs (anti-B220, CD8, and CD62L, or anti-CD8α, CD8β, and Me114) bound to magnetic microbeads, or to plastic. The purified cells were stimulated either by the anti-CD3 KT3 mAb (KT/7, KT/12, KT/22, KT/23), or by an anti-Vβ8.2 mAb (Vβ/9), and addition of IL-2 or IL-2 and IL-7. After 4-5 days of culture the cells were fused with BW5147 thymoma cells. The VII68, VIII24, XVI9, and XV104 diverse TCR hybridomas were generated from CD4^+ T cells from class 110 mice, as described previously (Cardell, S. et al., J. Exp. Med., 182:993-1004 (1995)). The DN32D3 hybridoma was derived as described (Lantz, O., and Bendelac, A., J. Exp. Med., 180:1097-106 (1994).
# (§2) To test for recognition of the mCD1d fusion protein and purified or synthetic antigens, 96 well protein A coated plates (Pierce Chemical Company) were incubated with 400-600 ng/well of the fusion protein or a negative control IgG2a antibody, RPC5.4 or UPC10, in PBS, at pH 7.2. Lipid antigens were diluted into PBS and added where specified at the indicated molar ratio of antigen to fusion protein, (when not specified the ratio was 40:1). Protein A plates containing the fusion protein and antigen were incubated 24-48 hr at 37° C., then washed three times with 200 μl/well sterile PBS, pH 7.2, and two times with 200 μl/well sterile culture medium (containing RPMI supplemented with L-glutamine and penicillin/streptomycin, Life Technologies, Gaithersburg, Md., and 10% bovine calf serum, Hyclone Laboratories, Logan, Utah). For assays in which the PI was phospholipase treated, it was first diluted into 0.01M Tris, 0.15M NaCl, pH 7.5, containing 0.25 U PI-specific phospholipase C or 0.5 U phospholipase D (Sigma, St Louis, Mo.), and incubated 30 minutes at room temperature, then added to the protein A plates as described above. For assays in which the pH was varied during antigen incubation with the fusion protein, the fusion protein and α-GalCer were diluted into a 20 mM citrate/phosphate buffer of the specified pH, which contained 0.15 M NaCl, and after incubation, the samples were neutralized by addition of 1M Tris, pH 7.5. Hybridoma cells were added to fusion protein/antigen treated plates at a concentration of 1×10^5 cells/well, in a total volume of 150 μl/well. Assays were performed using 2-6 replicate wells. In some assays, an anti-mCD1d blocking antibody (19G11) was included at a final concentration of 20 μg/ml. The plates were incubated at 37° C. for 16-20 hr, and culture supernatants were withdrawn for analysis. Each experiment was performed at least three times.
# (§3) IL-2 secreted in the hybridoma stimulation assays was quantitated in a double antibody sandwich ELISA, by comparison to a standard curve of purified murine IL-2 (Pharmingen, San Diego, Calif.). Hybridoma plate stimulation supernatants (used either neat or diluted) and serially diluted IL-2 standards were added to 96 well ELISA plates coated with a rat anti-mouse IL-2 capture antibody (Pharmingen).
# 14S.15.A hybridoma = details: 14S.15.A diverse TCR hybridoma; plate-bound mCD1d-IgGFc2a fusion protein preincubated with lipid antigen
# Description: as §1, §2
# as §3, with “(Pharmingen). […]” for “(Pharmingen).”
# 14S.6.A hybridoma = details: 14S.6.A diverse TCR hybridoma; plate-bound mCD1d-IgGFc2a fusion protein preincubated with lipid antigen
# Description: as §1, §2
# as §3, with “(Pharmingen). […]” for “(Pharmingen).”
# 14S.7.N hybridoma = details: 14S.7.N diverse TCR hybridoma; plate-bound mCD1d-IgGFc2a fusion protein preincubated with lipid antigen
# Description: as §1, §2
# as §3, with “(Pharmingen). […]” for “(Pharmingen).”
# 24.7.C hybridoma = details: 24 7.C NKT hybridoma; plate-bound mCD1d-IgGFc2a fusion protein preincubated with lipid antigen
# Description: as §1, §2
# as §3, with “(Pharmingen). […]” for “(Pharmingen).”
# 24.9.E hybridoma = details: 24.9 E NKT hybridoma; plate-bound mCD1d-IgGFc2a fusion protein preincubated with lipid antigen
# Description: as §1, §2
# as §3, with “(Pharmingen). […]” for “(Pharmingen).”
# DN32D3 hybridoma = details: DN32D3 NKT hybridoma; plate-bound mCD1d-IgGFc2a fusion protein preincubated with lipid antigen
# Description: as §1, §2
# as §3, with “(Pharmingen). […]” for “(Pharmingen).”
# KT/12 hybridoma = details: KT/12 NKT hybridoma; plate-bound mCD1d-IgGFc2a fusion protein preincubated with lipid antigen
# Description: as §1, §2
# as §3, with “(Pharmingen). […]” for “(Pharmingen).”
# KT/22 hybridoma = details: KT/22 NKT hybridoma; plate-bound mCD1d-IgGFc2a fusion protein preincubated with lipid antigen
# Description: as §1, §2
# as §3, with “(Pharmingen). […]” for “(Pharmingen).”
# KT/23 hybridoma = details: KT/23 NKT hybridoma; plate-bound mCD1d-IgGFc2a fusion protein preincubated with lipid antigen
# Description: as §1, §2
# as §3, with “(Pharmingen). […]” for “(Pharmingen).”
# KT/7 hybridoma = details: KT/7 NKT hybridoma; plate-bound mCD1d-IgGFc2a fusion protein preincubated with lipid antigen
# Description: as §1, §2
# as §3, with “(Pharmingen). […]” for “(Pharmingen).”
# VII68 hybridoma = details: VII68 diverse TCR hybridoma; plate-bound mCD1d-IgGFc2a fusion protein preincubated with lipid antigen
# Description: as §1, §2
# as §3, with “(Pharmingen). […]” for “(Pharmingen).”
# VIII24 hybridoma = details: VIII24 diverse TCR hybridoma; plate-bound mCD1d-IgGFc2a fusion protein preincubated with lipid antigen
# Description: as §1, §2
# as §3, with “(Pharmingen). […]” for “(Pharmingen).”
# Vβ/9 hybridoma = details: Vβ/9 NKT hybridoma; plate-bound mCD1d-IgGFc2a fusion protein preincubated with lipid antigen
# Description: as §1, §2
# as §3, with “(Pharmingen). […]” for “(Pharmingen).”
# XV104 hybridoma = details: XV104 diverse TCR hybridoma; plate-bound mCD1d-IgGFc2a fusion protein preincubated with lipid antigen
# Description: as §1, §2
# as §3, with “(Pharmingen). […]” for “(Pharmingen).”
# XV19 hybridoma = details: XV19 diverse TCR hybridoma; plate-bound mCD1d-IgGFc2a fusion protein preincubated with lipid antigen
# Description: as §1, §2
# as §3, with “(Pharmingen). […]” for “(Pharmingen).”
Substance,IL-2 secretion (24.8.A hybridoma),IL-2 secretion (14S.15.A hybridoma),IL-2 secretion (14S.6.A hybridoma),IL-2 secretion (14S.7.N hybridoma),IL-2 secretion (24.7.C hybridoma),IL-2 secretion (24.9.E hybridoma),IL-2 secretion (DN32D3 hybridoma),IL-2 secretion (KT/12 hybridoma),IL-2 secretion (KT/22 hybridoma),IL-2 secretion (KT/23 hybridoma),IL-2 secretion (KT/7 hybridoma),IL-2 secretion (VII68 hybridoma),IL-2 secretion (VIII24 hybridoma),IL-2 secretion (Vβ/9 hybridoma),IL-2 secretion (XV104 hybridoma),IL-2 secretion (XV19 hybridoma),"IL-2 response to mCD1d fusion protein pre-treated with purified or synthetic lipid (24.8.A hybridoma; 24.8.A hybridoma, compared to untreated or buffer treated fusion protein)"
monogalactosyl diglyceride [MGDG],+ (“+” indicates 50-250 pg/ml),0 (A “0” indicates a mean of less than 50 pg/ml IL-2 was secreted),0 (A “0” indicates a mean of less than 50 pg/ml IL-2 was secreted),0 (A “0” indicates a mean of less than 50 pg/ml IL-2 was secreted),0 (A “0” indicates a mean of less than 50 pg/ml IL-2 was secreted),0 (A “0” indicates a mean of less than 50 pg/ml IL-2 was secreted),0 (A “0” indicates a mean of less than 50 pg/ml IL-2 was secreted),0 (A “0” indicates a mean of less than 50 pg/ml IL-2 was secreted),0 (A “0” indicates a mean of less than 50 pg/ml IL-2 was secreted),0 (A “0” indicates a mean of less than 50 pg/ml IL-2 was secreted),0 (A “0” indicates a mean of less than 50 pg/ml IL-2 was secreted),0 (A “0” indicates a mean of less than 50 pg/ml IL-2 was secreted),0 (A “0” indicates a mean of less than 50 pg/ml IL-2 was secreted),0 (A “0” indicates a mean of less than 50 pg/ml IL-2 was secreted),0 (A “0” indicates a mean of less than 50 pg/ml IL-2 was secreted),0 (A “0” indicates a mean of less than 50 pg/ml IL-2 was secreted),
phosphatidylglycerol [PG],++ (“++” indicates 250-1000 pg/ml),+ (“+” indicates 50-250 pg/ml),+ (“+” indicates 50-250 pg/ml),+ (“+” indicates 50-250 pg/ml),0 (A “0” indicates a mean of less than 50 pg/ml IL-2 was secreted),+ (“+” indicates 50-250 pg/ml),0 (A “0” indicates a mean of less than 50 pg/ml IL-2 was secreted),0 (A “0” indicates a mean of less than 50 pg/ml IL-2 was secreted),0 (A “0” indicates a mean of less than 50 pg/ml IL-2 was secreted),0 (A “0” indicates a mean of less than 50 pg/ml IL-2 was secreted),0 (A “0” indicates a mean of less than 50 pg/ml IL-2 was secreted),0 (A “0” indicates a mean of less than 50 pg/ml IL-2 was secreted),0 (A “0” indicates a mean of less than 50 pg/ml IL-2 was secreted),0 (A “0” indicates a mean of less than 50 pg/ml IL-2 was secreted),0 (A “0” indicates a mean of less than 50 pg/ml IL-2 was secreted),0 (A “0” indicates a mean of less than 50 pg/ml IL-2 was secreted),dose dependent responses
